Target: T1, human mAChR M4 (Homo sapiens, UniProt P08173)
T1 construct: expressed in transfected cells
T1 sequence (P08173 1-479): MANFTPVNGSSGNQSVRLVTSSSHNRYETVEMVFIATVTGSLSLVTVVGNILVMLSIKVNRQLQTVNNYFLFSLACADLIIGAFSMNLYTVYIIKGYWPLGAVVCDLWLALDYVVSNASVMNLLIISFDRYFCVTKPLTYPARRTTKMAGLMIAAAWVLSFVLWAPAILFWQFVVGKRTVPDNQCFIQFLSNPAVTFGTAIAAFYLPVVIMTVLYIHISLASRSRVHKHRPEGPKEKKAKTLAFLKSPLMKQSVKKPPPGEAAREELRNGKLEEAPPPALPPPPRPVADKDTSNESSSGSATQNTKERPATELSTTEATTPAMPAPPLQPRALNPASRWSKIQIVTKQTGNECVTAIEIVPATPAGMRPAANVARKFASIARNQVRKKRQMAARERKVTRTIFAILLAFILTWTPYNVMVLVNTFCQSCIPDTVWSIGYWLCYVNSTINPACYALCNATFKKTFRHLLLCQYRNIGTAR
Assay: mAChR M4 cell-based functional assay (calcium mobilization, CHO-K1 hM4-Gqi5 cells)
Details: for EC50: positive allosteric modulator activity, increase in the EC20 acetylcholine response, CHO-K1 hM4-Gqi5 cells, read-out: Human M4 EC50
Procedure, shortened: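 CHO-K1 cells stably expressing human M4 with chimeric Gqi5, loaded with Fluo-4 AM; compounds given as 11-point 1:3 curves and calcium flux read on FDSS at 1 Hz. Acetylcholine EC20 added at 144 s, EC80 at 230 s; agonist, PAM (EC20 potentiation) and antagonist (EC80 inhibition) EC50/Emax from four-parameter fits.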

[1] = CHO-K1, % ACh maximum at 30 μM, human M4

| SMILES | Emax at 30 µM [1] | EC50 | Emax (CHO-K1) | Emax [1] |
| --- | --- | --- | --- | --- |
| Cc1cc(C(=O)NCc2cncs2)nnc1N1CCc2ncc(N3CCCn4nccc43)cc2C1 [Example 489, 6-(3-(6,7-dihydropyrazolo[1,5-a]pyrimidin-4(5H)-yl)-7,8-dihydro-1,6-naphthyridin-6(5H)-yl)-5-methyl-N-(thiazol-5-ylmethyl)pyridazine-3-carboxamide] | 95% | 5 nM | – | – |
| Cc1nc(Cl)c(C)c(N2Cc3cc(N)cnc3C(C)C2)n1 (centres unmarked) [compound 255, 6-(6-chloro-2,5-dimethylpyrimidin-4-yl)-8-methyl-5,6,7,8-tetrahydro-1,6-naphthyridin-3-amine] | – | 2100 nM | 88% | – |
| Cc1cnccc1Nc1cnc2c(c1)CN(c1nnc(C#N)c(C)c1C)CC2 [Example 618, 4,5-dimethyl-6-(3-((3-methylpyridin-4-yl)amino)-7,8-dihydro-1,6-naphthyridin-6(5)-yl)pyridazine-3-carbonitrile] | 74% | 391 nM | – | – |
| Cc1cc(C#N)nnc1N1CCc2ncc(N3CCCn4nc(C5CC5)cc43)cc2C1 [Example 419, 6-(3-(2-cyclopropyl-6,7-dihydropyrazolo[1,5-a]pyrimidin-4(5H)-yl)-7,8-dihydro-1,6-naphthyridin-6(5H)-yl)-5-methylpyridazine-3-carbonitrile] | 87% | 284 nM | – | – |
| Cc1cc(C#N)cnc1N1CCc2ncc(-c3cnn(C4CCC4)c3)cc2C1 [compound 101, 6-[3-(1-cyclobutylpyrazol-4-yl)-7,8-dihydro-5H-1,6-naphthyridin-6-yl]-5-methyl-pyridine-3-carbonitrile] | 91% | 339 nM | – | – |
| Cc1cc(C#N)nnc1N1CCc2ncc(C(C)(O)C(F)(F)F)cc2C1 (centres unmarked) [Example 424, 5-methyl-6-(3-(1,1,1-trifluoro-2-hydroxypropan-2-yl)-7,8-dihydro-1,6-naphthyridin-6(5H)-yl)pyridazine-3-carbonitrile] | 86% | 1430 nM | – | – |
| Cc1nc(Cl)c(C)c(N2CCc3ncc(-c4ccc(N(C)C)nc4)cc3C2)n1 [compound 220, 5-(6-(6-chloro-2,5-dimethylpyrimidin-4-yl)-5,6,7,8-tetrahydro-1,6-naphthyridin-3-yl)-N,N-dimethylpyridin-2-amine] | 82% | 518 nM | – | – |
| Cc1nn(C)cc1-c1cnc2c(c1)CN(c1nc(NC3CCOC3)nc(C)c1C)CC2 (centres unmarked) [compound 273, 4-(3-(1,3-dimethyl-1H-pyrazol-4-yl)-7,8-dihydro-1,6-naphthyridin-6(5H)-yl)-5,6-dimethyl-N-(tetrahydrofuran-3-yl)pyrimidin-2-amine] | 92% | 639 nM | – | – |
| Cc1cc(C(=O)NCc2ccccn2)cnc1N1CCc2ncc(-c3cn(C)nc3C)cc2C1 [Example 458, 6-(3-(1,3-dimethyl-1H-pyrazol-4-yl)-7,8-dihydro-1,6-naphthyridin-6(5H)-yl)-5-methyl-N-(pyridin-2-ylmethyl)nicotinamide] | 84% | 562 nM | – | – |
| Cc1cnccc1Nc1cnc2c(c1)CN(c1ncc(C#N)cc1C)CC2 [Example 620, 5-methyl-6-(3-((3-methylpyridin-4-yl)amino)-7,8-dihydro-1,6-naphthyridin-6(5H)-yl)nicotinonitrile] | 96% | 72 nM | – | – |
| Cc1cc(C(=O)N2CC(Cl)C2)nnc1N1CCc2ncc(-n3cccn3)cc2C1 [Example 532, (6-(3-(1H-pyrazol-1-yl)-7,8-dihydro-1,6-naphthyridin-6(5H)-yl)-5-methylpyridazin-3-yl)(3-chloroazetidin-1-yl)methanone] | 90% | 78 nM | – | – |
| Cc1cc(-c2cnc3c(c2)CN(c2nnc(C#N)c(C)c2C)CC3)ccn1 [Example 12] | – | 273 nM | – | 67% |
| Clc1nc2c(c(N3CCc4ncc(C5CC5)cc4C3)n1)COC2 [compound 287, 2-chloro-4-(3-cyclopropyl-7,8-dihydro-1,6-naphthyridin-6(5H)-yl)-5,7-dihydrofuro[3,4-d]pyrimidine] | – | 584 nM | – | – |
| Cc1cc(C(=O)N2CC(C)(O)C2)nnc1N1CCc2ncc(CC(F)(F)F)cc2C1 [Example 588, (3-hydroxy-3-methylazetidin-1-yl)(5-methyl-6-(3-(2,2,2-trifluoroethyl)-7,8-dihydro-1,6-naphthyridin-6(5H)-yl)pyridazin-3-yl)methanone] | 93% | 322 nM | – | – |
| Cc1cc(C(=O)Nc2ccncc2)cnc1N1CCc2ncc(C(F)(F)F)cc2C1 [Example 442, 5-methyl-N-(pyridin-4-yl)-6-(3-(trifluoromethyl)-7,8-dihydro-1,6-naphthyridin-6(5H)-yl)nicotinamide] | 96% | 424 nM | – | – |
| Cc1cc(C(=O)N2CC(C)(F)C2)nnc1N1CCc2ncc(-c3ccnn3C)cc2C1 [Example 564, (3-fluoro-3-methylazetidin-1-yl)(5-methyl-6-(3-(1-methyl-1H-pyrazol-5-yl)-7,8-dihydro-1,6-naphthyridin-6(5H)-yl)pyridazin-3-yl)methanone] | 72% | 86 nM | – | – |
| COC1CN(C(=O)c2cc(C)c(N3CCc4ncc(CC(F)(F)F)cc4C3)nn2)C1 [Example 589, (3-methoxyazetidin-1-yl)(5-methyl-6-(3-(2,2,2-trifluoroethyl)-7,8-dihydro-1,6-naphthyridin-6(5H)-yl)pyridazin-3-yl)methanone] | 99% | 173 nM | – | – |
| Cc1c(C#N)nnc(N2Cc3cc(C(F)(F)F)cnc3CC2C)c1C (centres unmarked) [Example 367, 4,5-dimethyl-6-(7-methyl-3-(trifluoromethyl)-7,8-dihydro-1,6-naphthyridin-6(5H)-yl)pyridazine-3-carbonitrile] | 89% | 209 nM | – | – |
| Cc1cc(C#N)nnc1N1CCc2ncc(-n3cccn3)cc2C1 [Example 400, 6-(3-(1H-pyrazol-1-yl)-7,8-dihydro-1,6-naphthyridin-6(5H)-yl)-5-methylpyridazine-3-carbonitrile] | 56% | 1050 nM | – | – |
| Cc1cc(C#N)cnc1N1CCc2ncc(-c3cccnc3)cc2C1 [compound 191, 5-methyl-6-[3-(3-pyridyl)-7,8-dihydro-5H-1,6-naphthyridin-6-yl]pyridine-3-carbonitrile] | 98% | 187 nM | – | – |
| Cc1c(C#N)nnc(N2CCc3ncc(Nc4cccc(Cl)c4F)cc3C2)c1C [Example 36] | 66% | 698 nM | – | – |
| Cc1cc(C#N)nnc1N1CCc2ncc(N3CCOC(C)(C)C3)cc2C1 [Example 398, 6-(3-(2,2-dimethylmorpholino)-7,8-dihydro-1,6-naphthyridin-6(5H)-yl)-5-methylpyridazine-3-carbonitrile] | 74% | 102 nM | – | – |
| COc1ccc(Oc2cnc3c(c2)CN(c2ncc(C#N)cc2C)CC3)cn1 [compound 182, 6-[3-[(6-methoxy-3-pyridyl)oxy]-7,8-dihydro-5H-1,6-naphthyridin-6-yl]-5-methyl-pyridine-3-carbonitrile] | 75% | 439 nM | – | – |
| Cc1nc(C)c(C)c(N2CCc3ncc(-c4ccc(N5CCCC5)nc4)cc3C2)n1 [compound 231, 3-(6-(pyrrolidin-1-yl)pyridin-3-yl)-6-(2,5,6-trimethylpyrimidin-4-yl)-5,6,7,8-tetrahydro-1,6-naphthyridine] | 63% | 668 nM | – | – |
| Cc1c(C#N)nnc(N2CCc3ncc(Nc4ccnn4C)cc3C2)c1C [compound 169, 4,5-dimethyl-6-[3-[(2-methylpyrazol-3-yl)amino]-7,8-dihydro-5H-1,6-naphthyridin-6-yl]pyridazine-3-carbonitrile] | 100% | 111 nM | – | – |
| Cc1cc(C(=O)NCc2ccncc2)cnc1N1CCc2ncc(C(F)(F)F)cc2C1 [Example 444, 5-methyl-N-(pyridin-4-ylmethyl)-6-(3-(trifluoromethyl)-7,8-dihydro-1,6-naphthyridin-6(5H)-yl)nicotinamide] | 100% | 196 nM | – | – |
| Cc1cc(C(=O)N(C)C)nnc1N1CCc2ncc(N3CCCn4nccc43)cc2C1 [Example 556, 6-(3-(6,7-dihydropyrazolo[1,5-a]pyrimidin-4(5H)-yl)-7,8-dihydro-1,6-naphthyridin-6(5H)-yl)-N,N,5-trimethylpyridazine-3-carboxamide] | 87% | 1460 nM | – | – |
| Cc1cncc(-c2cnc3c(c2)CN(c2nnc(C#N)c(C)c2C)CC3)c1 [Example 435, 4,5-dimethyl-6-(3-(5-methylpyridin-3-yl)-7,8-dihydro-1,6-naphthyridin-6(5H)-yl)pyridazine-3-carbonitrile] | 61% | 914 nM | – | – |
| Cc1c(C#N)nnc(N2CCc3ncc(Nc4nc(Cl)ncc4F)cc3C2)c1C [compound 81, 6-[3-[(2-chloro-5-fluoro-pyrimidin-4-yl)amino]-7,8-dihydro-5H-1,6-naphthyridin-6-yl]-4,5-dimethyl-pyridazine-3-carbonitrile] | 78% | 539 nM | – | – |
| Cc1cnc2c(c1)CN(c1ncc(C(=O)NCc3cncs3)cc1C)CC2 [Example 439, 5-methyl-6-(3-methyl-7,8-dihydro-1,6-naphthyridin-6(5H)-yl)-N-(thiazol-5-ylmethyl)nicotinamide] | 108% | 138 nM | – | – |

Source: patent publication US20250230155A1 (Vanderbilt University, priority 2021, published 2025)
